Results reported in ChEMBL document CHEMBL1914313, “Monosubstituted γ-lactam and conformationally constrained 1,3-diaminopropan-2-ol transition-state isostere inhibitors of β-secretase (BACE)” (Bioorg Med Chem Lett, 2011).

Tests used:
Beta-secretase 1 [1] = target: T1, Beta-secretase 1 (Homo sapiens, UniProt P56817); test: Inhibition of BACE1 by HPLC method
Beta-secretase 1 [2] = target: T1, Beta-secretase 1; test: Inhibition of BACE1 in human HEK293 cells expressing swedish mutant APP; format: cell-based
Beta-secretase 1 [3] = target: T1, Beta-secretase 1; test: Ratio of IC50 for BACE1 in human HEK293 cells expressing swedish mutant AP to IC50 for BACE1; format: cell-based
[4] = Selectivity for BACE1 over cathepsin E
[5] = Selectivity for BACE1 over cathepsin D
[6] = Selectivity for BACE1 over pepsin
P-glycoprotein = test: Efflux ratio of permeability across basolateral to apical side over apical to basolateral side in human Caco2 cells expressing p-glycoprotein; format: ADME, cell-based; settings: Caco-2

T1 sequence (P56817 whole entry): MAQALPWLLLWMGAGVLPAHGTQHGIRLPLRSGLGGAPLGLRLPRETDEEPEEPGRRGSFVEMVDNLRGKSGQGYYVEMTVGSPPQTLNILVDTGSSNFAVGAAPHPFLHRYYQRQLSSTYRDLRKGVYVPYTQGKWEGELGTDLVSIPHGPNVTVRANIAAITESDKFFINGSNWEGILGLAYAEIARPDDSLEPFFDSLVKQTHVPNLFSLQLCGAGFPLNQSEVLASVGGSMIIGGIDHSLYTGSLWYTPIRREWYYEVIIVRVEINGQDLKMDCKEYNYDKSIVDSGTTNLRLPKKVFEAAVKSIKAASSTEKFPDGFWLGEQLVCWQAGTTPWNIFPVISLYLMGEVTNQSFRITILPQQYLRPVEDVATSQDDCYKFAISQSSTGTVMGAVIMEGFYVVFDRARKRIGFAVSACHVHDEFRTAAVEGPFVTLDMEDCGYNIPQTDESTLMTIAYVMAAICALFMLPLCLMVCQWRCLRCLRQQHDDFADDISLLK

IC50 (Beta-secretase 1 [1]) | IC50 (Beta-secretase 1 [2]) | Structure (SMILES) | also measured
46 nM | 27 nM | COc1cccc(CNC[C@@H](O)[C@H](Cc2cc(F)cc(F)c2)NC(=O)[C@H](C)N2CC[C@@](CC3CC3)(NC(C)=O)C2=O)c1 | 
6.5 nM | 29 nM | CCC(C)[C@@]1(NC(C)=O)CCN([C@@H](CCc2ccccc2)C(=O)N[C@@H](Cc2cc(F)cc(F)c2)[C@H](O)[C@H]2C[C@@H](O)CN2)C1=O (stereo partly specified) | 
 | 330 nM | CC(C)C[C@H]1CCN([C@@H](C)C(=O)N[C@@H](Cc2cc(F)cc(F)c2)[C@H](O)[C@H]2C[C@@H](Oc3ccccn3)CN2)C1=O | 
21 nM | 99 nM | CCCO[C@H]1CN[C@@H]([C@@H](O)[C@H](Cc2cc(F)cc(F)c2)NC(=O)[C@H](CCc2ccccc2)N2CC[C@H](C(C)C)C2=O)C1 | 
20 nM | 240 nM | COc1cccc(CNC[C@@H](O)[C@H](Cc2cc(F)cc(F)c2)NC(=O)[C@H](CCc2ccccc2)N2CC[C@H](CC(C)C)C2=O)c1 | 
 | 1400 nM | CCCC[C@H]1CCN([C@@H](CCc2ccccc2)C(=O)N[C@@H](Cc2cc(F)cc(F)c2)[C@H](O)[C@H]2Cc3ccccc3CN2)C1=O | Ratio IC50 (Beta-secretase 1 [3]): > 10
10 nM | 8.9 nM | CCC(C)[C@@]1(NC(C)=O)CCN([C@@H](CCc2ccccc2)C(=O)N[C@@H](Cc2cc(F)cc(F)c2)[C@H](O)[C@H]2C[C@@H](OCc3ccc(F)cc3)CN2)C1=O (stereo partly specified) | 
8.6 nM | 9.5 nM | CC(=O)N[C@]1(CC(C)C)CCN([C@@H](CCc2ccccc2)C(=O)N[C@@H](Cc2cc(F)cc(F)c2)[C@H](O)[C@H]2Cc3ccccc3CN2)C1=O | 
 | 720 nM | CCCC[C@H]1CCN([C@@H](C)C(=O)N[C@@H](Cc2cc(F)cc(F)c2)[C@H](O)[C@H]2Cc3ccccc3CN2)C1=O | Ratio IC50 (Beta-secretase 1 [3]): > 10
110 nM | 720 nM | CCCC[C@H]1CCN([C@@H](CCc2ccccc2)C(=O)N[C@@H](Cc2cc(F)cc(F)c2)[C@H](O)[C@H]2C[C@H](O)CN2)C1=O | 
5.9 nM | 2.5 nM | CCC(C)[C@@]1(NC(C)=O)CCN([C@@H](CCc2ccccc2)C(=O)N[C@@H](Cc2cc(F)cc(F)c2)[C@H](O)[C@H]2C[C@@H](Oc3cccnc3)CN2)C1=O (stereo partly specified) | 
23 nM | 89 nM | CCCO[C@H]1CN[C@@H]([C@@H](O)[C@H](Cc2cc(F)cc(F)c2)NC(=O)[C@H](CCc2ccccc2)N2CC[C@H](COC)C2=O)C1 | 
2.6 nM | 2.7 nM | CCCO[C@H]1CN[C@@H]([C@@H](O)[C@H](Cc2cc(F)cc(F)c2)NC(=O)[C@H](CCc2ccccc2)N2CC[C@](NC(C)=O)(C(C)CC)C2=O)C1 (stereo partly specified) | Selectivity ratio [4]: 31; Selectivity ratio [5]: 31; Selectivity ratio [6]: 31
2.7 nM | 71 nM | CCC(C)[C@@]1(NC(C)=O)CCN([C@@H](CCc2ccccc2)C(=O)N[C@@H](Cc2cc(F)cc(F)c2)[C@H](O)[C@H]2C[C@@H](OCc3cccc(C(F)(F)F)c3)CN2)C1=O (stereo partly specified) | 
170 nM | 240 nM | COc1cccc(CNC[C@@H](O)[C@H](Cc2cc(F)cc(F)c2)NC(=O)[C@H](C)N2CC[C@H](C(C)C)C2=O)c1 | 
31 nM | > 660 nM | CCC(C)[C@@]1(NC(C)=O)CCN([C@@H](C)C(=O)N[C@@H](Cc2cc(F)cc(F)c2)[C@H](O)[C@H]2C[C@H](O)CN2)C1=O (stereo partly specified) | 
75 nM | 220 nM | COc1cccc(CNC[C@@H](O)[C@H](Cc2cc(F)cc(F)c2)NC(=O)[C@H](CCc2ccccc2)N2CC[C@H](C(C)C)C2=O)c1 | 
87 nM | 68 nM | CCCC[C@H]1CCN([C@@H](C)C(=O)N[C@@H](Cc2cc(F)cc(F)c2)[C@H](O)[C@H]2C[C@@H](OCCC)CN2)C1=O | efflux ratio (P-glycoprotein): > 17
5.7 nM | 69 nM | CCCO[C@H]1CN[C@@H]([C@@H](O)[C@H](Cc2cc(F)cc(F)c2)NC(=O)[C@H](CCc2ccccc2)N2CC[C@H](CC(C)C)C2=O)C1 | 
32 nM | 210 nM | COC[C@H]1CCN([C@@H](CCc2ccccc2)C(=O)N[C@@H](Cc2cc(F)cc(F)c2)[C@H](O)CNCc2cccc(OC)c2)C1=O | 
4.7 nM | 48 nM | CCCO[C@H]1CN[C@@H]([C@@H](O)[C@H](Cc2cc(F)cc(F)c2)NC(=O)[C@H](CCc2ccccc2)N2CC[C@H]([C@H](O)CCC)C2=O)C1 | 
1.4 nM | 2 nM | CCC(C)[C@@]1(NC(C)=O)CCN([C@@H](CCc2ccccc2)C(=O)N[C@@H](Cc2cc(F)cc(F)c2)[C@H](O)[C@H]2C[C@@H](OCc3cccnc3)CN2)C1=O (stereo partly specified) | 
 | 360 nM | CCCC[C@H]1CCN([C@@H](CCc2ccccc2)C(=O)N[C@@H](Cc2cc(F)cc(F)c2)[C@H](O)[C@H]2C[C@@H](Oc3ccccn3)CN2)C1=O | 
2.6 nM | 2.1 nM | CCC(C)[C@@]1(NC(C)=O)CCN([C@@H](CCc2ccccc2)C(=O)N[C@@H](Cc2cc(F)cc(F)c2)[C@H](O)[C@H]2C[C@@H](Oc3ccccn3)CN2)C1=O (stereo partly specified) | 

IC50 (Beta-secretase 1 [1]) | IC50 (Beta-secretase 1 [2]) | Structure (SMILES) | also measured
16 nM | 220 nM | CCC[C@@H](O)[C@H]1CCN([C@@H](CCc2ccccc2)C(=O)N[C@@H](Cc2cc(F)cc(F)c2)[C@H](O)[C@H]2C[C@H](O)CN2)C1=O | 
11 nM | 10 nM | COc1cccc(CNC[C@@H](O)[C@H](Cc2cc(F)cc(F)c2)NC(=O)[C@H](CCc2ccccc2)N2CC[C@@](CC3CC3)(NC(C)=O)C2=O)c1 | 
34 nM | 270 nM | CCC(C)[C@@]1(NC(C)=O)CCN([C@@H](CCc2ccccc2)C(=O)N[C@@H](Cc2cc(F)cc(F)c2)[C@H](O)[C@H]2C[C@@H](N)CN2)C1=O (stereo partly specified) | 
 | 12 nM | CCC(C)[C@@]1(NC(C)=O)CCN([C@@H](CCc2ccccc2)C(=O)N[C@@H](Cc2cc(F)cc(F)c2)[C@H](O)[C@H]2C[C@@H](OCc3ccccc3)CN2)C1=O (stereo partly specified) | 
3 nM | 4.2 nM | CCC(C)[C@@]1(NC(C)=O)CCN([C@@H](CCc2ccccc2)C(=O)N[C@@H](Cc2cc(F)cc(F)c2)[C@H](O)[C@H]2C[C@@H](OCc3cccc(C#N)c3)CN2)C1=O (stereo partly specified) | 
40 nM | 870 nM | CCC[C@@H](O)[C@H]1CCN([C@@H](C)C(=O)N[C@@H](Cc2cc(F)cc(F)c2)[C@H](O)[C@H]2C[C@H](O)CN2)C1=O | 
5.2 nM | 90 nM | CCC[C@@H](O)[C@H]1CCN([C@@H](CCc2ccccc2)C(=O)N[C@@H](Cc2cc(F)cc(F)c2)[C@H](O)CNCc2cccc(OC)c2)C1=O | 
2.6 nM | 1.4 nM | CCC(C)[C@@]1(NC(C)=O)CCN([C@@H](CCc2ccccc2)C(=O)N[C@@H](Cc2cc(F)cc(F)c2)[C@H](O)[C@H]2C[C@@H](Oc3ccccc3)CN2)C1=O (stereo partly specified) | 
 | 510 nM | CC(C)C[C@H]1CCN([C@@H](CCc2ccccc2)C(=O)N[C@@H](Cc2cc(F)cc(F)c2)[C@H](O)[C@H]2C[C@@H](Oc3ccccn3)CN2)C1=O | 
70 nM | 55 nM | CCCO[C@H]1CN[C@@H]([C@@H](O)[C@H](Cc2cc(F)cc(F)c2)NC(=O)[C@H](C)N2CC[C@H]([C@H](O)CCC)C2=O)C1 | 
1.5 nM | 1.3 nM | CCC(C)[C@@]1(NC(C)=O)CCN([C@@H](CCc2ccccc2)C(=O)N[C@@H](Cc2cc(F)cc(F)c2)[C@H](O)[C@H]2C[C@@H](OCc3ccccn3)CN2)C1=O (stereo partly specified) | 
96 nM | 1400 nM | CCCC[C@H]1CCN([C@@H](C)C(=O)N[C@@H](Cc2cc(F)cc(F)c2)[C@H](O)[C@H]2C[C@H](O)CN2)C1=O | 
25 nM | 650 nM | CCCC[C@H]1CCN([C@@H](CCc2ccccc2)C(=O)N[C@@H](Cc2cc(F)cc(F)c2)[C@H](O)[C@H]2C[C@@H](O)CN2)C1=O | 
89 nM | 67 nM | COc1cccc(CNC[C@@H](O)[C@H](Cc2cc(F)cc(F)c2)NC(=O)[C@H](C)N2CC[C@H](CC(C)C)C2=O)c1 | 
6.1 nM |  | CCC(C)[C@@]1(NC(C)=O)CCN([C@@H](CCc2ccccc2)C(=O)N[C@@H](Cc2cc(F)cc(F)c2)[C@H](O)CNCc2cccc(OC)c2)C1=O (stereo partly specified) | 
4.2 nM | 20 nM | CCC(C)[C@@]1(NC(C)=O)CCN([C@@H](CCc2ccccc2)C(=O)N[C@@H](Cc2cc(F)cc(F)c2)[C@H](O)[C@H]2Cc3cccc(OC)c3CN2)C1=O (stereo partly specified) | 
54 nM | 110 nM | CCC(C)[C@@]1(NC(C)=O)CCN([C@@H](CCc2ccccc2)C(=O)N[C@@H](Cc2cc(F)cc(F)c2)[C@H](O)[C@H]2Cc3ccccc3CN2)C1=O (stereo partly specified) | 
38 nM | 350 nM | CCCC[C@H]1CCN([C@@H](CCc2ccccc2)C(=O)N[C@@H](Cc2cc(F)cc(F)c2)[C@H](O)CNCc2cccc(OC)c2)C1=O | 
68 nM | 27 nM | CCC[C@@H](O)[C@H]1CCN([C@@H](C)C(=O)N[C@@H](Cc2cc(F)cc(F)c2)[C@H](O)CNCc2cccc(OC)c2)C1=O | 
160 nM | 390 nM | CCCO[C@H]1CN[C@@H]([C@@H](O)[C@H](Cc2cc(F)cc(F)c2)NC(=O)[C@H](C)N2CC[C@H](C(C)C)C2=O)C1 | 
35 nM | 110 nM | CCCO[C@H]1CN[C@@H]([C@@H](O)[C@H](Cc2cc(F)cc(F)c2)NC(=O)[C@H](C)N2CC[C@H](CC(C)C)C2=O)C1 | efflux ratio (P-glycoprotein): 32
50 nM | 190 nM | CCC(C)[C@@]1(NC(C)=O)CCN([C@@H](CCc2ccccc2)C(=O)N[C@@H](Cc2cc(F)cc(F)c2)[C@H](O)[C@H]2C[C@H](N)CN2)C1=O (stereo partly specified) | 
 | 2 nM | CCCO[C@H]1CN[C@@H]([C@@H](O)[C@H](Cc2cc(F)cc(F)c2)NC(=O)[C@H](CCc2ccccc2)N2CC[C@@](CC(C)C)(NC(C)=O)C2=O)C1 | efflux ratio (P-glycoprotein): > 12
480 nM | 400 nM | COC[C@H]1CCN([C@@H](C)C(=O)N[C@@H](Cc2cc(F)cc(F)c2)[C@H](O)CNCc2cccc(OC)c2)C1=O | 
